Values joined by “and” are separate entries in the source; they are usually repeats but may differ in a detail not shown here. Equal values may be shown once.
Legend:
[1] = xn = mol fraction of the nth substance listed

N#C[C-](C#N)C#N.OCCC[n+]1ccccc1
101 kPa
Details	viscosity [mPa·s]
293.15 K	126.3
298.15 K	92.54
303.15 K	69.51
308.15 K	53.84
313.15 K	42.53
318.15 K	34.64
323.15 K	28.1

CC(C)CCO
Details	viscosity
293.15 K, 101.33 kPa	4.579 mPa·s
298.1 K, 101 kPa	3.841 mPa·s and 3.798 mPa·s
298.15 K, 100 kPa	3.74 mPa·s
298.15 K, 101.3 kPa	3.48 mPa·s
298.15 K, 101.33 kPa	3.581 mPa·s
303.15 K, 101.3 kPa	2.95 mPa·s and 2.958 mPa·s and 2.96 mPa·s
308.15 K, 100 kPa	2.654 mPa·s
308.15 K, 101 kPa	2.805 mPa·s and 2.61 mPa·s and 2.881 mPa·s
308.15 K, 101.3 kPa	2.53 mPa·s
308.15 K, 101.33 kPa	2.59 mPa·s
313.15 K, 101.3 kPa	2.21 mPa·s
313.15 K, 101.33 kPa	2.537 mPa·s and 2.391 mPa·s
318.15 K, 101 kPa	2.05 mPa·s and 2.23 mPa·s
323.15 K, 101 kPa	1.867 mPa·s and 1.974 mPa·s
323.15 K, 101.33 kPa	1.827 mPa·s

CCOCCO
viscosity
Details	293.15 K	298.15 K	303 K	303.15 K	308.15 K	313 K	313.15 K	318.15 K	323.15 K
100 kPa	–	1.92 mPa·s	–	1.682 mPa·s	–	–	–	–	–
101 kPa	2.054 mPa·s	1.814 mPa·s	1.67 mPa·s	–	1.487 mPa·s and 1.453 mPa·s and 1.469 mPa·s	1.341 mPa·s	1.336 mPa·s and 1.341 mPa·s and 1.368 mPa·s	1.279 mPa·s	1.065 mPa·s
101.3 kPa	2.04 mPa·s	1.819 mPa·s	–	1.631 mPa·s	1.402 mPa·s and 1.47 mPa·s	–	1.332 mPa·s	1.212 mPa·s	1.108 mPa·s
101.33 kPa	–	–	–	–	–	–	–	1.18 mPa·s	–

C[C@@H]1CCCC[C@H]1O
101 kPa
Details	viscosity [mPa·s]
298.15 K	37.35
303.15 K	25.29

Oc1ccc(Cl)cc1
Details	viscosity [mPa·s]
308.15 K, 101.33 kPa	8.228

CC(CC(C)(C)C)CP(=O)(O)CC(C)CC(C)(C)C (stereo not drawn)
Details	viscosity [mPa·s]
298.15 K, 101 kPa	120

CNC(C)=O
viscosity
Details	293.15 K	298.15 K	303.15 K	303.18 K	308.15 K	313 K	313.15 K	318.15 K
101 kPa	5.56 mPa·s	4.771 mPa·s	4.087 mPa·s and 3.822 mPa·s (2×)	3.65 mPa·s	3.535 mPa·s	3.012 mPa·s	3.078 mPa·s and 2.904 mPa·s	2.764 mPa·s and 2.607 mPa·s
101.33 kPa	–	–	–	–	3.38 mPa·s	–	3.012 mPa·s and 3.004 mPa·s	2.673 mPa·s

Cc1cccc(Cl)c1
viscosity
Details	303.15 K	308.15 K	313.15 K	318.15 K
100 kPa	0.743 mPa·s	0.701 mPa·s	0.663 mPa·s	0.624 mPa·s
101 kPa	0.751 mPa·s and 0.743 mPa·s	0.701 mPa·s	0.652 mPa·s and 0.663 mPa·s	0.624 mPa·s

CCCCCCCCCCOC(C)=O
Details	viscosity [mPa·s]
303.15 K, 101.3 kPa	2.145

FC(F)(F)C(F)(F)C(F)(F)C(F)(F)C(F)(F)C(F)(F)F
101 kPa
Details	viscosity [mPa·s]
298 K	0.635
303 K	0.589
308 K	0.548

Cn1cc[n+](CCCC#N)c1.O=S(=O)([O-])C(F)(F)F
101 kPa
Details	viscosity [mPa·s]
293.15 K	811.5
298.15 K	580.6
303.15 K	422.5
308.15 K	310.1
313.15 K	230.6
318.15 K	177.1
323.15 K	141.4

CCOCCO + CCCCCCCC
viscosity [mPa·s], [1], 101.33 kPa
Details	x1 = 0.0976	x1 = 0.1994	x1 = 0.3003	x1 = 0.4001	x1 = 0.5004	x1 = 0.5944	x1 = 0.6962	x1 = 0.7983	x1 = 0.8969
298.15 K	0.524	0.566	0.619	0.687	0.772	0.87	1.003	1.179	1.421
303.15 K	0.49	0.527	0.574	0.632	0.71	0.795	0.911	1.069	1.279
308.15 K	0.463	0.494	0.538	0.591	0.657	0.732	0.834	0.972	1.155
313.15 K	0.434	0.462	0.5	0.55	0.609	0.673	0.763	0.896	1.05

CCOCCO + CCCCCC
viscosity [mPa·s], [1], 101.33 kPa
Details	x1 = 0.0967	x1 = 0.1963	x1 = 0.2958	x1 = 0.394	x1 = 0.4948	x1 = 0.5958	x1 = 0.6979	x1 = 0.7955	x1 = 0.8993
298.15 K	0.335	0.376	0.433	0.504	0.595	0.716	0.875	1.087	1.452
303.15 K	0.318	0.357	0.406	0.472	0.554	0.663	0.803	0.987	1.315
308.15 K	0.303	0.339	0.385	0.443	0.517	0.615	0.741	0.907	1.199
313.15 K	0.29	0.322	0.361	0.415	0.484	0.573	0.686	0.829	1.083

CCOCCO + O=C1CCCO1
[1], 303.15 K, 101.33 kPa
Details	viscosity [mPa·s]
x1 = 0.0345	1.722
x1 = 0.0509	1.708
x1 = 0.0767	1.687
x1 = 0.1125	1.658
x1 = 0.2033	1.603
x1 = 0.3137	1.561
x1 = 0.4404	1.544
x1 = 0.5421	1.538
x1 = 0.6504	1.535
x1 = 0.8807	1.541
x1 = 0.9372	1.538
x1 = 0.9693	1.553

CCOCCO + CCCO
viscosity [mPa·s], [1]
Details	298.15 K	303.15 K	308.15 K	313.15 K
101 kPa, x1 = 0.069	1.942	–	–	–
101 kPa, x1 = 0.1429	1.891	–	–	–
101 kPa, x1 = 0.2223	1.852	–	–	–
101 kPa, x1 = 0.3078	1.826	–	–	–
101 kPa, x1 = 0.4001	1.811	–	–	–
101 kPa, x1 = 0.5001	1.806	–	–	–
101 kPa, x1 = 0.6088	1.81	–	–	–
101 kPa, x1 = 0.7273	1.823	–	–	–
101 kPa, x1 = 0.8572	1.839	–	–	–
101.33 kPa, x1 = 0.0969	1.815	1.607	1.431	1.272
101.33 kPa, x1 = 0.199	1.761	1.56	1.395	1.244
101.33 kPa, x1 = 0.2917	1.73	1.542	1.376	1.235
101.33 kPa, x1 = 0.3971	1.659	1.482	1.326	1.178
101.33 kPa, x1 = 0.4928	1.711	1.521	1.366	1.223
101.33 kPa, x1 = 0.5933	1.721	1.531	1.377	1.233
101.33 kPa, x1 = 0.6923	1.732	1.546	1.386	1.232
101.33 kPa, x1 = 0.7987	1.754	1.567	1.403	1.265
101.33 kPa, x1 = 0.8853	1.774	1.578	1.418	1.402
